Experimental data: ChEMBL document CHEMBL3734724, “Anticancer efficacy of unique pyridine-based tetraindoles” (Eur J Med Chem, 2015)

Experiments:
MDA-MB-231 [1] = experiment: Cytotoxicity against human MDA-MB-231 cells assessed as growth inhibition after 48 hrs by MTT assay; type: functional, cell-based; conditions: MDA-MB-231, 48 h
[2] = Cytotoxicity against human BT549 cells assessed as growth inhibition after 48 hrs by MTT assay; type: functional, cell-based; conditions: BT-549, 48 h
[3] = Cytotoxicity against human M10 cells assessed as growth inhibition after 48 hrs by MTT assay; type: cell-based; conditions: M10, 48 h
[4] = Cytotoxicity against human Hs578T cells assessed as growth inhibition after 48 hrs by MTT assay; type: functional, cell-based; conditions: Hs-578T
MCF7 [5] = experiment: Cytotoxicity against human MCF7 cells assessed as growth inhibition after 48 hrs by MTT assay; type: functional, cell-based; conditions: MCF7, 48 h
[6] = Cytotoxicity against human Hs578T cells assessed as growth inhibition at 20 uM after 48 hrs by MTT assay relative to control; type: functional; conditions: Hs-578T, read-out: GI
MCF7 [7] = experiment: Cytotoxicity against human MCF7 cells assessed as growth inhibition at 20 uM after 48 hrs by MTT assay relative to control; type: functional; conditions: MCF7, 48 h, read-out: GI
[8] = Cytotoxicity against human BT549 cells assessed as growth inhibition at 20 uM after 48 hrs by MTT assay relative to control; type: functional; conditions: BT-549, 48 h, read-out: GI
[9] = Cytotoxicity against human M10 cells assessed as growth inhibition at 20 uM after 48 hrs by MTT assay relative to control; type: cell-based; conditions: read-out: GI
MDA-MB-231 [10] = experiment: Cytotoxicity against human MDA-MB-231 cells assessed as growth inhibition at 20 uM after 48 hrs by MTT assay relative to control; type: functional; conditions: MDA-MB-231, 48 h, read-out: GI
4T1 = experiment: Antitumor activity against luciferase-expressing mouse 4T1 cells allografted in athymic nude BALB/c mouse assessed as tumor growth inhibition at 12.5 mg/kg/week ip administered on first 3 days in first week followed by two shots on day 1 and day 4 at 6.25 mg/kg/week for another 3 weeks measured every other day until day 28 relative to vehicle-treated control; type: functional

Work on Fc1ccc2[nH]cc(C(c3ccc(C(c4c[nH]c5ccc(F)cc45)c4c[nH]c5ccc(F)cc45)nc3)c3c[nH]c4ccc(F)cc34)c2c1 yielded an IC50 (MDA-MB-231 [1]) of 8.6 µM, an IC50 [2] of 13.1 µM and an IC50 [3] of 19 µM. For the same molecule, the IC50 [4] was 17 µM and the IC50 (MCF7 [5]) was 14 µM.
For Oc1ccc2c(C(c3ccc(C(c4c[nH]c5cc(O)ccc45)c4c[nH]c5cc(O)ccc45)nc3)c3c[nH]c4cc(O)ccc34)c[nH]c2c1, the IC50 (MDA-MB-231 [1]) was 14 µM, the inhibition of growth at 20 µM [6] was 0% and the inhibition of growth at 20 µM (MCF7 [7]) was 0%. For the same molecule, the IC50 [2] was over 20 µM, the IC50 [3] was over 20 µM and the IC50 [4] was over 20 µM. The inhibition of growth at 20 µM [8] was 19%, the inhibition at 48 h, 20 µM [9] was 0% and the IC50 (MCF7 [5]) was over 20 µM.
With Fc1ccc2[nH]cc(C(c3cccc(C(c4c[nH]c5ccc(F)cc45)c4c[nH]c5ccc(F)cc45)n3)c3c[nH]c4ccc(F)cc34)c2c1 the IC50 (MDA-MB-231 [1]) was 9.6 µM, the IC50 [2] was 9.7 µM and the IC50 [3] was 12 µM. It also gave an IC50 [4] of 8.9 µM and an IC50 (MCF7 [5]) of 20 µM.
With Oc1ccc2[nH]cc(C(c3cccc(C(c4c[nH]c5ccc(O)cc45)c4c[nH]c5ccc(O)cc45)n3)c3c[nH]c4ccc(O)cc34)c2c1 the IC50 (MDA-MB-231 [1]) was 10.3 µM, the inhibition of growth at 20 µM [6] was 2% and the inhibition of growth at 20 µM (MCF7 [7]) was 11%. It also gave an IC50 [2] of over 20 µM, an IC50 [3] of over 20 µM and an IC50 [4] of over 20 µM. The inhibition of growth at 20 µM [8] was 10%, the inhibition at 48 h, 20 µM [9] was 9% and the IC50 (MCF7 [5]) was over 20 µM.
c1ccc(COc2ccc3[nH]cc(C(c4cccc(C(c5c[nH]c6ccc(OCc7ccccc7)cc56)c5c[nH]c6ccc(OCc7ccccc7)cc56)n4)c4c[nH]c5ccc(OCc6ccccc6)cc45)c3c2)cc1 showed an IC50 (MDA-MB-231 [1]) of over 20 µM, an inhibition of growth at 20 µM [6] of 0% and an inhibition of growth at 20 µM (MCF7 [7]) of 0%. It also gave an IC50 [2] of over 20 µM, an IC50 [3] of over 20 µM and an IC50 [4] of over 20 µM. For the same molecule, the inhibition of growth at 20 µM [8] was 40%, the inhibition of growth at 20 µM (MDA-MB-231 [10]) was 0% and the inhibition at 48 h, 20 µM [9] was 30%. For the same molecule, the IC50 (MCF7 [5]) was over 20 µM.
Oc1ccc2[nH]cc(C(c3ccc(C(c4c[nH]c5ccc(O)cc45)c4c[nH]c5ccc(O)cc45)cc3)c3c[nH]c4ccc(O)cc34)c2c1 gave a TGI (4T1) of 16%.
Work on Brc1ccc2[nH]cc(C(c3ccc(C(c4c[nH]c5ccc(Br)cc45)c4c[nH]c5ccc(Br)cc45)nc3)c3c[nH]c4ccc(Br)cc34)c2c1 yielded an IC50 (MDA-MB-231 [1]) of over 20 µM, an inhibition of growth at 20 µM [6] of 0% and an inhibition of growth at 20 µM (MCF7 [7]) of 0%. For the same molecule, the IC50 [2] was 10 µM, the IC50 [3] was over 20 µM and the IC50 [4] was over 20 µM. It also gave an inhibition of growth at 20 µM (MDA-MB-231 [10]) of 15%, an inhibition at 48 h, 20 µM [9] of 0% and an IC50 (MCF7 [5]) of over 20 µM.
Work on Clc1ccc2[nH]cc(C(c3ccc(C(c4c[nH]c5ccc(Cl)cc45)c4c[nH]c5ccc(Cl)cc45)nc3)c3c[nH]c4ccc(Cl)cc34)c2c1 yielded an IC50 (MDA-MB-231 [1]) of over 20 µM, an inhibition of growth at 20 µM [6] of 0% and an inhibition of growth at 20 µM (MCF7 [7]) of 11%. The IC50 [2] was over 20 µM, the IC50 [3] was over 20 µM and the IC50 [4] was over 20 µM. For the same molecule, the inhibition of growth at 20 µM [8] was 23%, the inhibition of growth at 20 µM (MDA-MB-231 [10]) was 9% and the inhibition at 48 h, 20 µM [9] was 25%. For the same molecule, the IC50 (MCF7 [5]) was over 20 µM.
For Brc1ccc2[nH]cc(C(c3cccc(C(c4c[nH]c5ccc(Br)cc45)c4c[nH]c5ccc(Br)cc45)n3)c3c[nH]c4ccc(Br)cc34)c2c1, the IC50 (MDA-MB-231 [1]) was over 20 µM, the inhibition of growth at 20 µM [6] was 0% and the inhibition of growth at 20 µM (MCF7 [7]) was 0%. It also gave an IC50 [2] of over 20 µM, an IC50 [3] of over 20 µM and an IC50 [4] of over 20 µM. For the same molecule, the inhibition of growth at 20 µM [8] was 15%, the inhibition of growth at 20 µM (MDA-MB-231 [10]) was 13% and the inhibition at 48 h, 20 µM [9] was 0%. The IC50 (MCF7 [5]) was over 20 µM.
N#Cc1ccc2[nH]cc(C(c3ccc(C(c4c[nH]c5ccc(C#N)cc45)c4c[nH]c5ccc(C#N)cc45)nc3)c3c[nH]c4ccc(C#N)cc34)c2c1 gave an IC50 (MDA-MB-231 [1]) of over 20 µM, an inhibition of growth at 20 µM [6] of 22% and an inhibition of growth at 20 µM (MCF7 [7]) of 0%. The IC50 [2] was over 20 µM, the IC50 [3] was over 20 µM and the IC50 [4] was over 20 µM. For the same molecule, the inhibition of growth at 20 µM [8] was 28%, the inhibition of growth at 20 µM (MDA-MB-231 [10]) was 0% and the inhibition at 48 h, 20 µM [9] was 0%. For the same molecule, the IC50 (MCF7 [5]) was over 20 µM.
Clc1ccc2[nH]cc(C(c3cccc(C(c4c[nH]c5ccc(Cl)cc45)c4c[nH]c5ccc(Cl)cc45)n3)c3c[nH]c4ccc(Cl)cc34)c2c1 gave an IC50 (MDA-MB-231 [1]) of over 20 µM, an inhibition of growth at 20 µM [6] of 5% and an inhibition of growth at 20 µM (MCF7 [7]) of 20%. For the same molecule, the IC50 [2] was 6 µM, the IC50 [3] was over 20 µM and the IC50 [4] was over 20 µM. It also gave an inhibition of growth at 20 µM (MDA-MB-231 [10]) of 0%, an inhibition at 48 h, 20 µM [9] of 28% and an IC50 (MCF7 [5]) of over 20 µM.
COc1ccc2[nH]cc(C(c3ccc(C(c4c[nH]c5ccc(OC)cc45)c4c[nH]c5ccc(OC)cc45)nc3)c3c[nH]c4ccc(OC)cc34)c2c1 gave an IC50 (MDA-MB-231 [1]) of over 20 µM, an inhibition of growth at 20 µM [6] of 21% and an inhibition of growth at 20 µM (MCF7 [7]) of 29%. It also gave an IC50 [2] of over 20 µM, an IC50 [3] of over 20 µM and an IC50 [4] of over 20 µM. It also gave an inhibition of growth at 20 µM [8] of 48%, an inhibition of growth at 20 µM (MDA-MB-231 [10]) of 11% and an inhibition at 48 h, 20 µM [9] of 0%. The IC50 (MCF7 [5]) was over 20 µM.
In the case of N#Cc1ccc2[nH]cc(C(c3cccc(C(c4c[nH]c5ccc(C#N)cc45)c4c[nH]c5ccc(C#N)cc45)n3)c3c[nH]c4ccc(C#N)cc34)c2c1, the IC50 (MDA-MB-231 [1]) is reported as over 20 µM, the inhibition of growth at 20 µM [6] is reported as 22% and the inhibition of growth at 20 µM (MCF7 [7]) is reported as 13%. The IC50 [2] was 13 µM, the IC50 [3] was over 20 µM and the IC50 [4] was over 20 µM. It also gave an inhibition of growth at 20 µM (MDA-MB-231 [10]) of 0%, an inhibition at 48 h, 20 µM [9] of 0% and an IC50 (MCF7 [5]) of over 20 µM.
With c1cc(C(c2c[nH]c3ccccc23)c2c[nH]c3ccccc23)nc(C(c2c[nH]c3ccccc23)c2c[nH]c3ccccc23)c1 the IC50 (MDA-MB-231 [1]) was over 20 µM, the inhibition of growth at 20 µM [6] was 8% and the inhibition of growth at 20 µM (MCF7 [7]) was 47%. It also gave an IC50 [2] of over 20 µM, an IC50 [3] of over 20 µM and an IC50 [4] of over 20 µM. The inhibition of growth at 20 µM [8] was 22%, the inhibition of growth at 20 µM (MDA-MB-231 [10]) was 29% and the inhibition at 48 h, 20 µM [9] was 32%. The IC50 (MCF7 [5]) was over 20 µM.
For c1ccc2c(C(c3ccc(C(c4c[nH]c5ccccc45)c4c[nH]c5ccccc45)nc3)c3c[nH]c4ccccc34)c[nH]c2c1, the IC50 (MDA-MB-231 [1]) was over 20 µM, the inhibition of growth at 20 µM (MCF7 [7]) was 21% and the IC50 [2] was 15 µM. For the same molecule, the IC50 [3] was over 20 µM, the IC50 [4] was 9 µM and the inhibition of growth at 20 µM (MDA-MB-231 [10]) was 4%. The inhibition at 48 h, 20 µM [9] was 26% and the IC50 (MCF7 [5]) was over 20 µM.
Molecule COc1ccc2[nH]cc(C(c3cccc(C(c4c[nH]c5ccc(OC)cc45)c4c[nH]c5ccc(OC)cc45)n3)c3c[nH]c4ccc(OC)cc34)c2c1 has an IC50 (MDA-MB-231 [1]) of over 20 µM, an inhibition of growth at 20 µM [6] of 18% and an inhibition of growth at 20 µM (MCF7 [7]) of 9%. The IC50 [2] was 14 µM, the IC50 [3] was over 20 µM and the IC50 [4] was over 20 µM. For the same molecule, the inhibition of growth at 20 µM (MDA-MB-231 [10]) was 0%, the inhibition at 48 h, 20 µM [9] was 0% and the IC50 (MCF7 [5]) was over 20 µM.
